Assay results reported in publication PMC6416464 (Drug Metabolism Letters, 2018).
Read-outs that look alike come from different tables or passages of the source.

Tests used:
[1] = Metabolic stability, incubation with human liver cytosol; type: in vitro ADME; conditions: 1 µM test compound, 1 mg/mL protein
rCYP3A4 = rCYP3A4 (Homo sapiens, UniProt P08684)
CYP3A4 [2] = target: T1, CYP3A4 (Homo sapiens, UniProt P08684); experiment: in vitro; conditions: microsomes, pH 7.4, % Inhibition of Control Activity CYP3A4 (substrate, testosterone)
CYP3A4 [3] = target: T1, CYP3A4; experiment: in vitro; conditions: microsomes, pH 7.4
[4] = Metabolic stability, incubation with human liver microsomes; conditions: 1 µM test compound, 0.5 mg/mL protein
CYP2C8 = target: T2, CYP2C8 (Homo sapiens, UniProt P10632); experiment: CYP inhibition in human liver microsomes, CYP2C8; conditions: human, human liver microsomes, pH 7.4, probe paclitaxel
T2 sequence (P10632 1-490): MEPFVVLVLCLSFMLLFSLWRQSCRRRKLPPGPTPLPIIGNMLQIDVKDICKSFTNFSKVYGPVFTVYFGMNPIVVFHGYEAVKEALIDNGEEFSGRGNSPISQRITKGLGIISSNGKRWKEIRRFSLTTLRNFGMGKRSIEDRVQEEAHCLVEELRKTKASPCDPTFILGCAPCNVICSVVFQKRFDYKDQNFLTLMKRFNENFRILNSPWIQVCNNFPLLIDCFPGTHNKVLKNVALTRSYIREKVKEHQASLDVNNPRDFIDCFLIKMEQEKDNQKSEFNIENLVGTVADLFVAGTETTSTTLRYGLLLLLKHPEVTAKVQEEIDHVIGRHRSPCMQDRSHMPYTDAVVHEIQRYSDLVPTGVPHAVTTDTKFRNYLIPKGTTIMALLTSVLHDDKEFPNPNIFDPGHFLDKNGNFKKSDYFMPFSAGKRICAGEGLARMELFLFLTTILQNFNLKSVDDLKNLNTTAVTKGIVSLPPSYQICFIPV

rCYP1A2 = target: T3, rCYP1A2 (Homo sapiens, UniProt P05177); experiment: Metabolic stability / reaction phenotyping with recombinant human CYP1A2; conditions: for % Metabolized at 30 min Incubation with Human Liver Fractions/Enzymes rCYP1A2: 1 µM test compound, 100 pmol/mL
T3 sequence (P05177 1-516): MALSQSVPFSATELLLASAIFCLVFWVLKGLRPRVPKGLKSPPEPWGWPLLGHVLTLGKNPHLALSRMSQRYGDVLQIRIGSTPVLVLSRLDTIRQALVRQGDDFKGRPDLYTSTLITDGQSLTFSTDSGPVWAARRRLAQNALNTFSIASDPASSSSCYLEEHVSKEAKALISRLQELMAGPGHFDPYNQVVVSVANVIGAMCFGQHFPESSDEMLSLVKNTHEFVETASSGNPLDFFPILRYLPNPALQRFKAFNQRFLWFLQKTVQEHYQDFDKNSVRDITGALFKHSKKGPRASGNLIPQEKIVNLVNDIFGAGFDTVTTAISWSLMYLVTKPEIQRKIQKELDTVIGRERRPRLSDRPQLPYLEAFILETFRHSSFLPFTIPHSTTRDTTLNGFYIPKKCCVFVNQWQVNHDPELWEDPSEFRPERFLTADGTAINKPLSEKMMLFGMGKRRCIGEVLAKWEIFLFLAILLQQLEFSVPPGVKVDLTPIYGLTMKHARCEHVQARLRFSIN

rCYP2C8 = target: T4, rCYP2C8 (Homo sapiens, UniProt P10632); experiment: Metabolic stability / reaction phenotyping with recombinant human CYP2C8; conditions: for % Metabolized at 30 min Incubation with Human Liver Fractions/Enzymes rCYP2C8: 1 µM test compound, 100 pmol/mL
T4 sequence (P10632 1-490): T2 sequence (P10632 1-490)

rCYP2C9 = rCYP2C9 (Homo sapiens, UniProt P11712); experiment: Metabolic stability / reaction phenotyping with recombinant human CYP2C9; conditions: for % Metabolized at 30 min Incubation with Human Liver Fractions/Enzymes rCYP2C9: 1 µM test compound, 100 pmol/mL
rCYP2D6 = rCYP2D6 (Homo sapiens, UniProt P10635); experiment: Metabolic stability / reaction phenotyping with recombinant human CYP2D6; conditions: for % Metabolized at 30 min Incubation with Human Liver Fractions/Enzymes rCYP2D6: 1 µM test compound, 100 pmol/mL
rCYP2C19 = rCYP2C19 (Homo sapiens, UniProt P33261); experiment: Metabolic stability / reaction phenotyping with recombinant human CYP2C19; conditions: for % Metabolized at 30 min Incubation with Human Liver Fractions/Enzymes rCYP2C19: 1 µM test compound, 100 pmol/mL; for % Contribution of CYP Enzymes (fmCYP) in Metabolism, CYP2C19 / Predicted Microsomal Clint, CYP2C19 / rCYP Clint, CYP2C19: human, recombinant human CYP2C19, 1 µM, pH 7.4
CYP1A2 = target: T5, CYP1A2 (Homo sapiens, UniProt P05177); experiment: CYP inhibition in human liver microsomes, CYP1A2
T5 sequence (P05177 1-516): T3 sequence (P05177 1-516)

[5] = 1 µM test compound, 100 pmol/mL, 30 min
[6] = human, recombinant enzyme, pH 7.4
[7] = human, recombinant human CYP1A2, 1 µM, pH 7.4
[8] = human, recombinant human CYP2C8, 1 µM, pH 7.4
[9] = human, recombinant human CYP2C9, 1 µM, pH 7.4
[10] = human, recombinant human CYP2D6, 1 µM, pH 7.4

T1 sequence (P08684 2-503): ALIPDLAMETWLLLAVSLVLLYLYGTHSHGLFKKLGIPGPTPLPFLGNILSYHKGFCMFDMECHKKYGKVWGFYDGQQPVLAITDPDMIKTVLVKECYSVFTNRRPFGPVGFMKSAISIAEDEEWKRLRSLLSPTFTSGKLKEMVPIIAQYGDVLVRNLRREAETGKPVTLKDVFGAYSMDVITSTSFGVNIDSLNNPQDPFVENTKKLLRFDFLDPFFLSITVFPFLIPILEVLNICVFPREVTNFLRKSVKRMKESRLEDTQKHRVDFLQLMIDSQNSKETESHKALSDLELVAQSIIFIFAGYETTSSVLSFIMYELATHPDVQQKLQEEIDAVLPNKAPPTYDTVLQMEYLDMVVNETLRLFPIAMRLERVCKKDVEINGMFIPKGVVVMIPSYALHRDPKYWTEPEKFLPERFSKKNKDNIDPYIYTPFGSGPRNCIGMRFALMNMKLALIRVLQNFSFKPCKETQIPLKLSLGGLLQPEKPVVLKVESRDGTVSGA
Sequence of rCYP2C9 (P11712 whole entry): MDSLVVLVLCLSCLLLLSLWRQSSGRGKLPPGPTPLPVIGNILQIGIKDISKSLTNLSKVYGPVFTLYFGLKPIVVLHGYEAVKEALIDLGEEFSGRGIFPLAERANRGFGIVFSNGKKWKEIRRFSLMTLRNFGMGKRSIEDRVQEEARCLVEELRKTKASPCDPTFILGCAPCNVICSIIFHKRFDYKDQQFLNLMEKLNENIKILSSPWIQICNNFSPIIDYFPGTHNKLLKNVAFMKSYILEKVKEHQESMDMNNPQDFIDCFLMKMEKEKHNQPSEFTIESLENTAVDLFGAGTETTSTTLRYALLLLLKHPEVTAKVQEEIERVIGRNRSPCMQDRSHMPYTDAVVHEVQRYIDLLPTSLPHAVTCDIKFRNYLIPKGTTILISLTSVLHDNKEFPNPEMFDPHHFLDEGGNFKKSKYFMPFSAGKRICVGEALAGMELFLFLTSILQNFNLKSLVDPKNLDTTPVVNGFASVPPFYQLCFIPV
Sequence of rCYP2D6 (P10635 whole entry): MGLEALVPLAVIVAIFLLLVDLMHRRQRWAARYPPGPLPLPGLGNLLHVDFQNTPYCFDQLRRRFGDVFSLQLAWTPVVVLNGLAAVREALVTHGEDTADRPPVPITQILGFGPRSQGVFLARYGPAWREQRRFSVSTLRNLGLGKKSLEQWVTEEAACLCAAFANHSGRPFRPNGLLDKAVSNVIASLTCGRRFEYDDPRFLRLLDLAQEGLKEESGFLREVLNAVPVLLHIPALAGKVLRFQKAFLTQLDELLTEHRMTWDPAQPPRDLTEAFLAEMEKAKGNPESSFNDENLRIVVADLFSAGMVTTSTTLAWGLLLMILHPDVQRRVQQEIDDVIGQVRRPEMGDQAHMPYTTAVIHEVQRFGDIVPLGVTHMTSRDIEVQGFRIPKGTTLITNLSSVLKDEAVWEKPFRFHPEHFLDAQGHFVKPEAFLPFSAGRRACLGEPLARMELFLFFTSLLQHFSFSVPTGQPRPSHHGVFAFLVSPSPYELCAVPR
Sequence of rCYP2C19 (P33261 whole entry): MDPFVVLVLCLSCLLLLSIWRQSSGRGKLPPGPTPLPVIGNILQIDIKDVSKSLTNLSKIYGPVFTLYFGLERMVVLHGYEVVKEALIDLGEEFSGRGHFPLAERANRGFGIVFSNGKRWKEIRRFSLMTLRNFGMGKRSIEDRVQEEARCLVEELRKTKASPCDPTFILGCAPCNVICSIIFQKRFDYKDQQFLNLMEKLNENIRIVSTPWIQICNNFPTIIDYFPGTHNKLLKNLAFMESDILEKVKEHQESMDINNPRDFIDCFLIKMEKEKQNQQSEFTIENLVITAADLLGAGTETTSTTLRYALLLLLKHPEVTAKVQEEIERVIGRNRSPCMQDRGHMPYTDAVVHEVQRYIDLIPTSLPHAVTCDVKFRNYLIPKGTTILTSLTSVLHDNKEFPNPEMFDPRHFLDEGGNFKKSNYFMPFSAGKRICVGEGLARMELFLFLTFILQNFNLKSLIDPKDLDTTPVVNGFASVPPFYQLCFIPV
Sequence of rCYP3A4 (P08684 whole entry): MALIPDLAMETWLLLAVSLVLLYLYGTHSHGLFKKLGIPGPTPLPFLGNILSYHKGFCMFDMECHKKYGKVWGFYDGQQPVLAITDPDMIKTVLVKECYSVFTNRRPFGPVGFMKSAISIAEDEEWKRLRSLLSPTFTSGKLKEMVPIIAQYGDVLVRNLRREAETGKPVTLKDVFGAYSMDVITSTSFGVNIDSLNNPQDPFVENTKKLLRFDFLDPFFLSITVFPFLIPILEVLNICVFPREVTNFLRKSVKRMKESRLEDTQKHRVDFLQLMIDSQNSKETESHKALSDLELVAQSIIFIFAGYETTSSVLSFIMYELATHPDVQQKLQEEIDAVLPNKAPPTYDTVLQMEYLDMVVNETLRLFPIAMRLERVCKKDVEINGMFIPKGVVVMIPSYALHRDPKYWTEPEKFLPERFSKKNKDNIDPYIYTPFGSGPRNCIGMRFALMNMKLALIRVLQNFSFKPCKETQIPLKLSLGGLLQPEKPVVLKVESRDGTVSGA

## CNC(=O)O/N=C/C(C)(C)[S+](C)[O-] (centres unmarked) [Aldicarb sulfoxide, aldicarb sulfoxide]
[1]
  % Metabolized at 30 min Incubation with Human Liver Fractions/Enzymes Cytosol: 0.00%
rCYP3A4; [5]
  % Metabolized at 30 min Incubation with Human Liver Fractions/Enzymes rCYP3A4: 5.91%
rCYP3A4; human, pH 7.4
  Predicted Microsomal Clint, CYP3A4: 2.254 µL/min/mg Protein
rCYP3A4; [6]
  % Contribution of CYP Enzymes (fmCYP) in Metabolism, CYP3A4: 97.66%
  rCYP Clint, CYP3A4: 0.020 µL/min/pmol
CYP3A4 [2]
  inhibition at 2 µM: < 0%
  inhibition at 10 µM: < 0%
CYP3A4 [3]
  inhibition at 2 µM: < 0%
  inhibition at 10 µM: < 0%
[4]
  % Metabolized at 30 min Incubation with Human Liver Fractions/Enzymes HLM: 21.18%
CYP2C8
  inhibition at 2 µM: < 0%
  inhibition at 10 µM: 2.32%
rCYP1A2
  % Metabolized at 30 min Incubation with Human Liver Fractions/Enzymes rCYP1A2: 0.00%
rCYP2C8
  % Metabolized at 30 min Incubation with Human Liver Fractions/Enzymes rCYP2C8: 0.00%
rCYP2C9
  % Metabolized at 30 min Incubation with Human Liver Fractions/Enzymes rCYP2C9: 0.00%
rCYP2D6
  % Metabolized at 30 min Incubation with Human Liver Fractions/Enzymes rCYP2D6: 0.00%
rCYP2C19
  % Metabolized at 30 min Incubation with Human Liver Fractions/Enzymes rCYP2C19: 0.85%
  % Contribution of CYP Enzymes (fmCYP) in Metabolism, CYP2C19: 2.34%
  Predicted Microsomal Clint, CYP2C19: 0.054 µL/min/mg Protein
  rCYP Clint, CYP2C19: 0.003 µL/min/pmol

## C[C@]12CC[C@H]3[C@@H](CCC4=CC(=O)CC[C@@]43C)[C@@H]1CC[C@@H]2O [Testosterone, testosterone, reference compound]
rCYP3A4; human, recombinant enzyme, 0.5 h, pH 7.4
  % Metabolized at 30 min Incubation with Human Liver Fractions/Enzymes rCYP3A4: 85.13%
[4]
  % Metabolized at 30 min Incubation with Human Liver Fractions/Enzymes HLM: 90.74%

## O=c1cc(-c2ccccc2)oc2c1ccc1ccccc12 [α-Nepthoflavone, α-naphthoflavone, reference compound]
CYP1A2; human, human liver microsomes, pH 7.4, probe phenacetin, Percent inhibition, positive control inhibitor, CYP1A2, concentration tested 20 nM
  inhibition at 20 nM: 62.4%

## CN(CCOc1ccc(CC2SC(=O)NC2=O)cc1)c1ccccn1 (centres unmarked) [Rosiglitazone, reference compound]
CYP2C8
  inhibition at 25 µM: 69.2%

## COc1ccc2c(c1)[C@]13CCCC[C@@H]1[C@H](C2)N(C)CC3 [Dextromethorphan, dextromethorphan]
rCYP2D6
  % Metabolized at 30 min Incubation with Human Liver Fractions/Enzymes rCYP2D6: 99.81%

## CNC(=O)Oc1cc(C)c(SC)c(C)c1 [Methiocarb, methiocarb]
[1]
  % Metabolized at 30 min Incubation with Human Liver Fractions/Enzymes Cytosol: 6.93%
rCYP3A4; [5]
  % Metabolized at 30 min Incubation with Human Liver Fractions/Enzymes rCYP3A4: 98.38%
rCYP3A4; human, pH 7.4
  Predicted Microsomal Clint, CYP3A4: 188.076 µL/min/mg Protein
rCYP3A4; [6]
  % Contribution of CYP Enzymes (fmCYP) in Metabolism, CYP3A4: 81.34%
  rCYP Clint, CYP3A4: 1.694 µL/min/pmol
CYP3A4 [2]
  inhibition at 2 µM: 8.34%
  inhibition at 10 µM: 29.7%
CYP3A4 [3]
  inhibition at 2 µM: < 0%
  inhibition at 10 µM: < 0%
[4]
  % Metabolized at 30 min Incubation with Human Liver Fractions/Enzymes HLM: 78.39%
CYP1A2
  IC50: 710 nM
CYP2C8
  inhibition at 2 µM: < 0%
  inhibition at 10 µM: < 0%
rCYP1A2
  % Metabolized at 30 min Incubation with Human Liver Fractions/Enzymes rCYP1A2: 46.94%
rCYP1A2; [7]
  % Contribution of CYP Enzymes (fmCYP) in Metabolism, CYP1A2: 4.75%
  Predicted Microsomal Clint, CYP1A2: 10.987 µL/min/mg Protein
  rCYP Clint, CYP1A2: 0.211 µL/min/pmol
rCYP2C8
  % Metabolized at 30 min Incubation with Human Liver Fractions/Enzymes rCYP2C8: 41.44%
rCYP2C8; [8]
  % Contribution of CYP Enzymes (fmCYP) in Metabolism, CYP2C8: 4.94%
  Predicted Microsomal Clint, CYP2C8: 11.416 µL/min/mg Protein
  rCYP Clint, CYP2C8: 0.178 µL/min/pmol
rCYP2C9
  % Metabolized at 30 min Incubation with Human Liver Fractions/Enzymes rCYP2C9: 6.50%
rCYP2C9; [9]
  % Contribution of CYP Enzymes (fmCYP) in Metabolism, CYP2C9: 0.93%
  Predicted Microsomal Clint, CYP2C9: 2.151 µL/min/mg Protein
  rCYP Clint, CYP2C9: 0.022 µL/min/pmol
rCYP2D6
  % Metabolized at 30 min Incubation with Human Liver Fractions/Enzymes rCYP2D6: 99.43%
rCYP2D6; [10]
  % Contribution of CYP Enzymes (fmCYP) in Metabolism, CYP2D6: 7.46%
  Predicted Microsomal Clint, CYP2D6: 17.239 µL/min/mg Protein
  rCYP Clint, CYP2D6: 1.724 µL/min/pmol
rCYP2C19
  % Metabolized at 30 min Incubation with Human Liver Fractions/Enzymes rCYP2C19: 19.42%
  % Contribution of CYP Enzymes (fmCYP) in Metabolism, CYP2C19: 0.59%
  Predicted Microsomal Clint, CYP2C19: 1.367 µL/min/mg Protein
  rCYP Clint, CYP2C19: 0.072 µL/min/pmol

## c1ccc2cnncc2c1 [Phthalazine, phthalazine, reference compound]
[1]
  % Metabolized at 30 min Incubation with Human Liver Fractions/Enzymes Cytosol: 90.89%
